Like-named read-outs stand apart in the source and are kept apart here.
Tests used:
c-kit = target: T1, c-kit (Homo sapiens, UniProt P10721); assay: Inhibitory activity against c-kit autophosphorylation (MO7e cells, h-SCF); type: cell-based; conditions: for IC50: MO7e cells, read-out: c-kit IC50; for inhibition at 1 µM: Mo7e, at 1000 nM
T1 construct: MO7e (human megakaryocytic leukemia cell line) which had been arrested for 20 hr; endogenous in cells; host or cells: MO7e human megakaryocytic leukemia cell line
How it was run: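 MO7e cells, arrested for 20 hr, were pretreated with test compound in DMSO for 1 hr and then stimulated with 50 ng/ml h-SCF for 5 min before lysis. Lysates were captured on immobilized anti-phosphotyrosine PY-20, probed with anti-c-kit antibody and HRP anti-rabbit IgG, and read colorimetrically at 450 nm.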

PDGF-Ra = target: T2, PDGF-Ra (Homo sapiens, UniProt P16234); assay: Inhibitory activity against PDGF-Ra phosphorylation by PDGF-AA stimulation using G292; type: cell-based; conditions: for IC50: > means inhibition at indicated concentration not more than 50%, < and << not less than 50%, read-out: PDGF (E) IC50; for inhibition at 0.1 µM: G292, at 100 nM, read-out: PDGF (E) inhibition (%) at 100 nM
T2 construct: host or cells: G-292 human osteosarcoma cells
How it was run: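 G-292 human osteosarcoma cells in 0.1% FBS medium overnight, given compound for 1 hr at 37° C, then PDGF-AA 50 ng/ml for 5 min. Lysates captured on anti-phosphotyrosine (PY-20) plates and probed with anti-PDGF-Ra plus HRP secondary; absorbance at 450 nm.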

[1] = figure within parentheses in >100( )
[2] = figure within parentheses in −( ) or >1000( )

T2 sequence (P16234 24-1089): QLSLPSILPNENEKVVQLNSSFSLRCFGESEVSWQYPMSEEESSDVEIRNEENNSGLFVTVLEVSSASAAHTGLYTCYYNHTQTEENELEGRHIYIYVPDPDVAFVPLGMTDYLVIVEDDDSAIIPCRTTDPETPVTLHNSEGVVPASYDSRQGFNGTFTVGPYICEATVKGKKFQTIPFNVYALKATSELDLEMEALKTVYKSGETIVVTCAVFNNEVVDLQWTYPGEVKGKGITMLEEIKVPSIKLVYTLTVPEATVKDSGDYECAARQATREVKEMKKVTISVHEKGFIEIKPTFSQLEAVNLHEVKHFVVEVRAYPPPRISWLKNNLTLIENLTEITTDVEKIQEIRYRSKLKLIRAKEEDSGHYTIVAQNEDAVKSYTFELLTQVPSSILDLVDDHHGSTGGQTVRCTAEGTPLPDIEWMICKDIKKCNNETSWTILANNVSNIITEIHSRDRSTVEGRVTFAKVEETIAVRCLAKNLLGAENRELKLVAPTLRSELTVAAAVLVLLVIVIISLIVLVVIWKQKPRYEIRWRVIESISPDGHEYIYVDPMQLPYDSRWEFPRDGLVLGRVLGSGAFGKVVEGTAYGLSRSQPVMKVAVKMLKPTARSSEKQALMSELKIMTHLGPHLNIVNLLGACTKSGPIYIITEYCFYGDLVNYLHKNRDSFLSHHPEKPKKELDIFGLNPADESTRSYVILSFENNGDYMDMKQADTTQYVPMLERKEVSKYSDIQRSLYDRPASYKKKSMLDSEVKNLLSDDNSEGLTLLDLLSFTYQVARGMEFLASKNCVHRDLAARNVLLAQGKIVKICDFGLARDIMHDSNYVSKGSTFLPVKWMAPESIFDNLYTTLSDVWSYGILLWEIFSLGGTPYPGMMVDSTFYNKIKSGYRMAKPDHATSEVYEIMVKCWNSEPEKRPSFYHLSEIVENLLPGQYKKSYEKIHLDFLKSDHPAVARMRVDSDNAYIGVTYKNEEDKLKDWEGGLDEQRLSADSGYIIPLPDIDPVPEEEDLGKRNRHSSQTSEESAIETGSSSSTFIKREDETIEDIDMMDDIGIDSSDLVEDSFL
T1 sequence (P10721 26-976): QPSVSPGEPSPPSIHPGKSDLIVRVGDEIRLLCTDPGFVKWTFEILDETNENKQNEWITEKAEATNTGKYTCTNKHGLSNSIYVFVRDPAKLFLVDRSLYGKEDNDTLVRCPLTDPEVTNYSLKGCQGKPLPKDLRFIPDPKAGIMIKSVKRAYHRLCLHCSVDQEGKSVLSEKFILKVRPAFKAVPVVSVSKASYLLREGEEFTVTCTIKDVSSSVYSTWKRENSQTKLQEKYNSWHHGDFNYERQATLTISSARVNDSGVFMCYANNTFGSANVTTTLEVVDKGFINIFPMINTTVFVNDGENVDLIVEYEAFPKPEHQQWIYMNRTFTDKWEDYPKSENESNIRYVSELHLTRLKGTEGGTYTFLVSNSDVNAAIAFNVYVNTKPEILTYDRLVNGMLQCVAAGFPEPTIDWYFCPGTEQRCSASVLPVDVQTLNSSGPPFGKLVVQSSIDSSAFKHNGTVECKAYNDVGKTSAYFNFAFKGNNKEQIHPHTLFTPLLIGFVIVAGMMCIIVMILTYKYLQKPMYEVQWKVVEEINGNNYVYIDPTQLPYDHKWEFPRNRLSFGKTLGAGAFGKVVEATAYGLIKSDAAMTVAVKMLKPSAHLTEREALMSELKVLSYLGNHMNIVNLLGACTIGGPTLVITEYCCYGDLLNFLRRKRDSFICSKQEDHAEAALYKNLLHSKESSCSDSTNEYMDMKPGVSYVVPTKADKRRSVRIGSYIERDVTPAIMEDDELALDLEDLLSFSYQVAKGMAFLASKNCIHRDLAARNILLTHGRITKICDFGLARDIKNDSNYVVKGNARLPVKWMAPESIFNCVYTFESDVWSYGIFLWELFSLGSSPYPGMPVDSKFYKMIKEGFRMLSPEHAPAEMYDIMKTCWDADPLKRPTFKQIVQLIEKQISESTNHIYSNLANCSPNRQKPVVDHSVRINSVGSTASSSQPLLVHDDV

SMILES	IC50 (c-kit; 50 ng/ml h-SCF)	IC50 (PDGF-Ra)	IC50 (PDGF-Ra; Pharmacological Test Example 1)	IC50 (c-kit; h-SCF 50 ng/ml)	further results
COc1ccccc1NCCOc1ccc(Oc2ccnc3cc(OC)c(OC)cc23)cc1 [Example 777, N-(2-{4-[(6,7-Dimethoxy-4-quinolyl)oxy]phenoxy}ethyl)-N-(2-methoxyphenyl)amine]	11 nM	11 nM			
COc1cc2nccc(Oc3ccc(OCCCOc4cccc(F)c4)cc3)c2cc1OC [Example 797, 4-{4-[3-(3-Fluorophenoxy)propoxy]phenoxy}-6,7-dimethoxyquinoline]	403 nM	27 nM			
COc1cc2ncnc(Oc3ccc(NC(=O)NC4CCN(Cc5ccccc5C)C4)cc3)c2cc1OC (stereo not shown) [Example 569, N-{4-[(6,7-Dimethoxy-4-quinazolinyl)oxy]phenyl}-N′-[1-(2-methylbenzyl)tetrahydro-1H-3-pyrrolyl]urea]	168 nM	12 nM			
COc1cc2ncnc(Oc3ccc(NC(=O)OCCCSc4ccc(C(C)(C)C)cc4)c(Cl)c3)c2cc1OC [Example 76, 3-{[4-(Tert-butyl)phenyl]sulfanyl}propyl N-{2-chloro-4-[(6,7-dimethoxy-4-quinazolinyl)oxy]phenyl}carbamate]			> 100 nM		inhibition at 1 µM (c-kit; figure in parentheses in −( )): 14%; inhibition at 0.1 µM (PDGF-Ra; figure in parentheses in >100( )): 37%
COc1cc2ncnc(Oc3ccc(N(C)C(=O)OCc4ccccc4Cl)cc3)c2cc1OC [Example 492, 2-Chlorobenzyl N-{4-[(6,7-dimethoxy-4-quinazolinyl)oxy]phenyl}-N-methylcarbamate]	321 nM	20 nM			
CCOc1ccccc1C(C)OC(=O)Nc1ccc(Oc2ncnc3cc(OC)c(OC)cc23)cc1 (stereo not shown) [Example 130, 1-(2-Ethoxyphenyl)ethyl N-{4-[(6,7-dimethoxy-4-quinazolinyl)oxy]phenyl}carbamate]			< 10 nM	714 nM	
CCCCN(CCCC)CCNC(=O)Nc1ccc(Oc2ccnc3cc(OC)c(OC)cc23)c(C)c1C [Example 684, N-[2-(Dibutylamino)ethyl]-N′-{4-[(6,7-dimethoxy-4-quinolyl)oxy]-2,3-dimethylphenyl}urea]	549 nM	52 nM			
COc1ccc(OCCCOC(=O)Nc2ccc(Oc3ncnc4cc(OC)c(OC)cc34)cc2Cl)cc1 [Example 46, 3-(4-Methoxyphenoxy)propyl N-{2-chloro-4-[(6,7-dimethoxy-4-quinazolinyl)oxy]phenyl}carbamate]			22 nM	388 nM	
COc1cc2nccc(Oc3cc(C)c(NC(=O)NCCN(C)C)cc3C)c2cc1OC [Example 625, N-{4-[(6,7-Dimethoxy-4-quinolyl)oxy]-2,5-dimethylphenyl}-N′-[2-(dimethylamino)ethyl]urea]	596 nM	> 100 nM			inhibition at 0.1 µM (PDGF-Ra; [1]): 31%
CCN(CC)CCOC(=O)Nc1ccc(Oc2ccnc3cc(OC)c(OC)cc23)cc1 [Example 435, 2-(Diethylamino)ethyl N-{4-[(6,7-dimethoxy-4-quinolyl)oxy]phenyl}carbamate]	445 nM	33 nM			
COc1cc(Oc2ncnc3cc(OC)c(OC)cc23)ccc1NC(=O)OC1CCCCCC1 [Example 498, Cycloheptyl N-{4-[(6,7-dimethoxy-4-quinazolinyl)oxy]-2-methoxyphenyl}carbamate]	140 nM	< 10 nM			
COc1cc2nccc(Oc3ccc(NC(=S)NC(=O)c4ccccc4I)c(F)c3)c2cc1OC [Example 908, N-{4-[(6,7-Dimethoxy-4-quinolyl)oxy]-2-fluorophenyl}-N′-(2-iodobenzoyl)thiourea]		9 nM			IC50 (c-kit; h-SCF stimulation): 757 nM
CCCC1CCC(C(=O)NC(=S)Nc2ccc(Oc3ccnc4cc(OC)c(OC)cc34)c(Cl)c2)CC1 (stereo not shown) [Example 1196, N-{3-Chloro-4-[(6,7-dimethoxy-4-quinolyl)oxy]phenyl}-N′-[(4-propylcyclohexyl)carbonyl]thiourea]		> 100 nM			IC50 (c-kit; h-SCF stimulation): 700 nM
COc1cc2ncnc(Oc3ccc(NC(=O)OCCCOc4ccccc4F)cc3)c2cc1OC [Example 145, 3-(2-Fluorophenoxy) propyl N-{4-[(6,7-dimethoxy-4-quinazolinyl)oxy]phenyl}carbamate]			< 10 nM	< 30 nM	
CCCC(C)C(=O)NC(=S)Nc1ccc(Oc2ncnc3cc(OC)c(OC)cc23)cc1 (stereo not shown) [Example 1201, N-{4-[(6,7-Dimethoxy-4-quinazolinyl)oxy]phenyl}-N′-(2-methylpentanoyl)thiourea]		< 10 nM			IC50 (c-kit; h-SCF stimulation): 450 nM
COc1cc2nccc(Oc3cc(C)c(NC(=O)OCc4ccc(C(C)(C)C)cc4)cc3C)c2cc1OC [Example 59, 4-(Tert-butyl)benzyl N-{4-[(6,7-dimethoxy-4-quinolyl)oxy]-2,5-dimethylphenyl}carbamate]			57 nM		inhibition at 1 µM (c-kit; figure in parentheses in −( )): 33%

SMILES	IC50 (c-kit; 50 ng/ml h-SCF)	IC50 (PDGF-Ra)	IC50 (PDGF-Ra; Pharmacological Test Example 1)	IC50 (c-kit; h-SCF 50 ng/ml)	further results
COc1cc2nccc(Oc3cc(C)c(NC(=O)Oc4c(C)cccc4C)cc3C)c2cc1OC [Example 270, 2,6-Dimethylphenyl N-{4-[(6,7-dimethoxy-4-quinolyl)oxy]-2,5-dimethylphenyl}carbamate]			65 nM	471 nM	
COc1cc2nccc(Oc3ccc(NC(=S)NC(=O)C4(C)CC4(Cl)Cl)cc3Cl)c2cc1OC (stereo not shown) [Example 750, N-{3-Chloro-4-[(6,7-dimethoxy-4-quinolyl)oxy]phenyl}-N′-[(2,2-dichloro-1-methylcyclopropyl)carbonyl]thiourea]		17 nM			inhibition at 1 µM (c-kit; [2]): 43%
COc1cc2nccc(Oc3ccc(NC(=S)NC(=O)CCc4ccc(C)cc4)cc3)c2cc1OC [Example 721, N-{4-[(6,7-Dimethoxy-4-quinolyl)oxy]phenyl}-N′-[3-(4-methylphenyl)propanoyl]thiourea]		36 nM			inhibition at 1 µM (c-kit; [2]): 20%
COc1ccc(COC(=O)Nc2ccc(Oc3ccnc4cc(OC)c(OC)cc34)cc2)cc1 [Example 249, 4-Methoxybenzyl N-{4-[(6,7-dimethoxy-4-quinolyl)oxy]phenyl}carbamate]			4 nM	57 nM	
CCCCC(CCCC)OC(=O)Nc1ccc(Oc2ncnc3cc(OC)c(OC)cc23)cc1 [Example 371, 1-Butylpentyl N-{4-[(6,7-dimethoxy-4-quinazolinyl)oxy]phenyl}carbamate]			< 10 nM	541 nM	
COc1cc2nccc(Oc3ccc(NC(=S)NC(=O)c4ccc(CCl)cc4)cc3Cl)c2cc1OC [Example 1137, N-{3-Chloro-4-[(6,7-dimethoxy-4-quinolyl)oxy]phenyl}-N′-[4-(chloromethyl)benzoyl]thiourea]		28 nM			inhibition at 1 µM (c-kit; figure in parentheses in −( )): 38%
COc1cc2nccc(Oc3cc(C)c(NC(=O)NCCN4CCOCC4)cc3C)c2cc1OC [Example 616, N-{4-[(6,7-Dimethoxy-4-quinolyl)oxy]-2,5-dimethylphenyl}-N′-(2-morpholinoethyl)urea]	224 nM	36 nM			
CCN(CC)C(=O)NC(=S)Nc1ccc(Oc2ccnc3cc(OC)c(OC)cc23)cc1 [Example 1041, N-{4-[(6,7-Dimethoxy-4-quinolyl)oxy]phenyl}-{[(diethylamino)carbonyl]amino}methanethioamide]		12 nM			IC50 (c-kit; h-SCF stimulation): 98 nM
COc1cc2nccc(Oc3ccc(NC(=O)OCc4cccc(C)c4)cc3)c2cc1OC [Example 251, 3-Methylbenzyl N-{4-[(6,7-dimethoxy-4-quinolyl)oxy]phenyl}carbamate]			6 nM	185 nM	
COc1cc2nccc(Oc3ccc(NC(=O)OCCCSc4ccccn4)c(C)c3C)c2cc1OC [Example 173, 3-(2-Pyridylsulfanyl)propyl N-{4-[(6,7-dimethoxy-4-quinolyl)oxy]-2,3-dimethylphenyl}-carbamate]			< 10 nM	37 nM	
COc1cc2ncnc(Oc3ccc(NC(=S)NC(=O)CCCc4ccccc4)cc3)c2cc1OC [Example 1139, N-{4-[(6,7-Dimethoxy-4-quinazolinyl)oxy]phenyl}-N′-(4-phenylbutanoyl)thiourea]		12 nM			IC50 (c-kit; h-SCF stimulation): 783 nM
COc1cc2nccc(Oc3ccc(NC(=S)NC(=O)c4cccc(C)c4)cc3)c2cc1OC [Example 930, N-{4-[(6,7-Dimethoxy-4-quinolyl)oxy]phenyl}-N′-(3-methylbenzoyl)thiourea]		< 10 nM			IC50 (c-kit; h-SCF stimulation): 184 nM
COc1cc2nccc(Oc3ccc(NC(=O)OCCN4CCOCC4)c(C)c3C)c2cc1OC [Example 308, 2-Morpholinoethyl N-{4-[(6,7-dimethoxy-4-quinolyl)oxy]-2,3-dimethylphenyl}carbamate]			20 nM	101 nM	
COc1cc2ncnc(Oc3ccc(N(C)C(=O)OC4CCCCC4)cc3)c2cc1OC [Example 476, Cyclohexyl N-{4-[(6,7-dimethoxy-4-quinazolinyl)oxy]phenyl}-N-methylcarbamate]	172 nM	< 10 nM			
COc1cc2nccc(Oc3ccc(NC(=O)OCCCOc4cccc(F)c4)cc3)c2cc1OC [Example 147, 3-(3-Fluorophenoxy)propyl N-{4-[(6,7-dimethoxy-4-quinolyl)oxy]phenyl}carbamate]			11 nM	< 30 nM	
CCCCN(CCCC)CCCNC(=S)Nc1ccc(Oc2ccnc3cc(OC)c(OC)cc23)c(C)c1C [Example 547, N-{4-[(6,7-Dimethoxy-4-quinolyl)oxy]-2,3-dimethylphenyl}-N′-(3-dibutylaminopropyl)thiourea]		> 100 nM			inhibition at 1 µM (c-kit; [2]): 41%; inhibition at 0.1 µM (PDGF-Ra; [1]): 33%
